This passage reports IC50 and EC50 results from patent US20250026745A1 (Bluejay Therapeutics, Inc., priority 2023, published 2025).

The target of assay [1] is recombinant 17β-HSD13 protein (Homo sapiens (Human), UniProt Q7Z5P4). Kind of assay: 17β-HSD13 biochemical assay (NAD+/NADH Glo chemiluminescence). The note with it: 17β-HSD13 50 nM, NAD+ 10 mM, β-estradiol 20 μM, 2 hours room temperature. As for the experimental part:
17β-HSD13 biochemical assays are generically described in patents WO 2022/020730, WO 2021/003295, and WO 2023/023310. More specifically, recombinant 17β-HSD13 protein was assayed in a buffer containing 200 mM Tris pH 7.5, 0.01% Triton X-100, and 0.02% BSA into a 384-well assay plate. Compounds were incubated with 17β-HSD13 (final 50 nM) and NAD+ (final 10 mM) at room temperature for 1 h prior to substrate addition. The assay reaction was then initiated by addition of β-estradiol (final 20 μM), and the reaction mixture was incubated for 2 hours at room temperature. Product formation was detected with chemiluminescence by adding equal volume of NAD+/NADH Glo reagent (Promega, #G9062) and read on a PHERAstar microplate reader (BMG LABTECH). IC50 values were determined with GraphPad Prism®, where log-transformed concentration values and the inhibition data were fitted to a four-parameter logistic equation. Y=Bottom+(Top−Bottom)/(1+10^((Log IC50−X)*HillSlope)). The original, % control, or % inhibition data are represented by Y along with their minimal (Bottom) and maximal (Top) values. The inhibitor concentration is represented by X, IC50 is the concentration at 50% maximal value, and Hill Slope is the slope factor.

Assay [2] addresses HEK293 cells expressing 17β-HSD13 (Homo sapiens (Human), UniProt Q7Z5P4). Kind of assay: 17β-HSD13 cell-based assay (β-estradiol conversion, LC-MS/MS). The procedure:
HEK293 cells expressing 17β-HSD13 either stably or transiently were incubated with compounds for 60 min at 37° C. in a humidified incubator. After this first incubation step, β-estradiol was added to each well of the microtiter plate and incubated for 3 h at 37° C. in the humidified incubator. After treatment with β-Estradiol, 50 μL of supernatant was transferred to a 96-V plate containing 100 μL acetonitrile and centrifuged at 3900 rpm for 45 min. Finally, 50 μL of supernatant were taken for LC-MS/MS analysis. The chromatography part was run on a Xbridge 30 mm×2.1 mm column (Waters), at 40 degrees Celsius and a flow rate of 0.8 mL/min for 5 min, while the MS was done on a Q Exactive Orbitrap (Fisher Scientific) in Target SIM mode and negative polarity with a spray voltage of 3.5 kV. EC50 values were determined with GraphPad Prism®, where log-transformed concentration values and the inhibition data were fitted to a four-parameter logistic equation. Y=Bottom+(Top−Bottom)/(1+10^((Log EC50−X)*Hill Slope)). The original, % control, or % inhibition data are represented by Y along with their minimal (Bottom) and maximal (Top) values. The inhibitor concentration is represented by X, EC50 is the concentration at 50% maximal value, and Hill Slope is the slope factor.

Setting [3] is: HEK293 cells stably expressing 17β-HSD13 (footnote b), read-out: EC50, nM Stable.
Setting [4] is: HEK293 cells transiently expressing 17β-HSD13 (footnote a), read-out: EC50, nM Transient.

The structures appear in SMILES notation. Read-outs that look alike come from different tables or passages of the source.

recombinant 17β-HSD13 protein, sequence (Q7Z5P4 20-300): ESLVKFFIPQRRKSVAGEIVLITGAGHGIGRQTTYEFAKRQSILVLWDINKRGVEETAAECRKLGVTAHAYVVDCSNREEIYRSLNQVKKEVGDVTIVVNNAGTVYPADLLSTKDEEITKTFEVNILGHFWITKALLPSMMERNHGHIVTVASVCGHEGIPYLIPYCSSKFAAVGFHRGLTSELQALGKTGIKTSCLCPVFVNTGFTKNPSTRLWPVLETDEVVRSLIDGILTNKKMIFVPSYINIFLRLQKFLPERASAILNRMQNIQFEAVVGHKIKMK
HEK293 cells expressing 17β-HSD13, sequence (Q7Z5P4 20-300): as above

In the case of `C[C@@H](c1ccccc1)N1C(=O)N(Cc2nnc(-c3ccc(F)c(O)c3Cl)s2)C2(CC2)C1=O` [Compound I-32, (S)-4-((5-(2-chloro-4-fluoro-3-hydroxyphenyl)-1,3,4-thiadiazol-2-yl)methyl)-6-(1-phenylethyl)-4,6-diazaspiro[2.4]heptane-5,7-dione], the IC50 in assay [1] stood at 3.72 nM. For the same compound, the EC50 in assay [2] (setting [3]) came out at 14.7 nM. `CC(C)N1C(=O)N(Cc2nnc(-c3ccc(F)c(O)c3F)s2)C2(CC2)C1=O` [Compound I-5, 4-((5-(2,4-difluoro-3-hydroxyphenyl)-1,3,4-thiadiazol-2-yl)methyl)-6-isopropyl-4,6-diazaspiro[2.4]heptane-5,7-dione]: in assay [1], the IC50 is 8.99 ± 0.322 nM. The half-maximal effective concentration (EC50) in assay [2] (setting [4]) turned out to be 42.2 nM.

Consider `O=C1N(Cc2ccccc2)C(=O)C2(CC2)N1Cc1nnc(-c2cc(C(F)F)c(F)c(O)c2F)s1` [Compound I-65, 6-benzyl-4-((5-(5-(difluoromethyl)-2,4-difluoro-3-hydroxyphenyl)-1,3,4-thiadiazol-2-yl)methyl)-4,6-diazaspiro[2.4]heptane-5,7-dione], for which the EC50 in assay [2] (setting [3]) amounted to 19.2 nM. Same read-out and setting: the figure for `O=C1N(CC(F)(F)F)C(=O)C2(CC2)N1Cc1nnc(-c2cc(F)c(F)c(O)c2F)s1` [Compound I-68, 4-((5-(2,4,5-trifluoro-3-hydroxyphenyl)-1,3,4-thiadiazol-2-yl)methyl)-6-(2,2,2-trifluoroethyl)-4,6-diazaspiro[2.4]heptane-5,7-dione] is 35 nM. On to `CCN1C(=O)C(C)N(Cc2nnc(-c3ccc(F)c(O)c3F)s2)C1=O` (stereo not shown) [Compound I-3, 1-((5-(2,4-difluoro-3-hydroxyphenyl)-1,3,4-thiadiazol-2-yl)methyl)-3-ethyl-5-methylimidazolidine-2,4-dione], for which the IC50 in assay [1] was 86.1 nM. Further, in assay [2] (setting [4]), the concentration giving a half-maximal response (EC50) was determined as 175 nM. Consider `O=C1N(CC(F)(F)F)C(=O)C2(CC2)N1Cc1nnc(-c2cc(C(F)(F)F)cc(O)c2Cl)s1` [Compound I-40, 4-((5-(2-chloro-3-hydroxy-5-(trifluoromethyl)phenyl)-1,3,4-thiadiazol-2-yl)methyl)-6-(2,2,2-trifluoroethyl)-4,6-diazaspiro[2.4]heptane-5,7-dione], for which, in assay [1], the IC50 was found to be 9.8 nM. In addition, in assay [2] (setting [3]), the EC50 worked out at 66.4 nM.

For `O=C1N(C(c2ccc(F)cc2F)C(F)(F)F)C(=O)C2(CC2)N1Cc1nnc(-c2ccc(F)c(O)c2Cl)s1` (single isomer, unassigned) [Compound I-54A], the half-inhibitory concentration (IC50) in assay [1] turned out to be 0.857 ± 0.153 nM. Moreover, in assay [2] (setting [3]), the EC50 worked out at 5.63 ± 0.961 nM.

As for `O=C1N(Cc2ccccc2)C(=O)C2(CC2)N1Cc1nnc(-c2ccc(F)c(O)c2Cl)s1` [Compound I-35, 6-benzyl-4-((5-(2-chloro-4-fluoro-3-hydroxyphenyl)-1,3,4-thiadiazol-2-yl)methyl)-4,6-diazaspiro[2.4]heptane-5,7-dione], in assay [1], the 50% inhibitory concentration (IC50) worked out at 5.33 nM. Also, the EC50 in assay [2] (setting [3]) was 40.9 nM. For the compound `O=C1N(CC2(C(F)(F)F)CC2)C(=O)C2(CC2)N1Cc1nnc(-c2ccc(F)c(O)c2Cl)s1` [Compound I-26, 4-((5-(2-chloro-4-fluoro-3-hydroxyphenyl)-1,3,4-thiadiazol-2-yl)methyl)-6-((1-(trifluoromethyl)cyclopropyl)methyl)-4,6-diazaspiro[2.4]heptane-5,7-dione], the half-inhibitory concentration (IC50) in assay [1] came out at 18.7 ± 2.67 nM. Further, in assay [2] (setting [3]), the EC50 is 107 nM. For `O=C1N(Cc2nnc(-c3ccc(F)c(O)c3F)s2)C2(CC2)C(=O)N1C1(c2ccccc2)CC1` [Compound I-86, 4-((5-(2,4-difluoro-3-hydroxyphenyl)-1,3,4-thiadiazol-2-yl)methyl)-6-(1-phenylcyclopropyl)-4,6-diazaspiro[2.4]heptane-5,7-dione], in that order: 2.5 nM and 4.74 nM. On to `CCCN1C(=O)N(Cc2nnc(-c3ccc(F)c(O)c3F)s2)C2(CC2)C1=O` [Compound I-4, 4-((5-(2,4-difluoro-3-hydroxyphenyl)-1,3,4-thiadiazol-2-yl)methyl)-6-propyl-4,6-diazaspiro[2.4]heptane-5,7-dione], for which, in assay [1], the IC50 stood at 10.6 ± 0.919 nM. The half-maximal effective concentration (EC50) in assay [2] (setting [4]) was 20.6 nM. Consider `O=C1N(Cc2ccccc2)C(=O)C2(CC2)N1Cc1nnc(-c2cc(F)c(F)c(O)c2F)s1` [Compound I-69, 6-benzyl-4-((5-(2,4,5-trifluoro-3-hydroxyphenyl)-1,3,4-thiadiazol-2-yl)methyl)-4,6-diazaspiro[2.4]heptane-5,7-dione], for which the EC50 in assay [2] (setting [3]) was determined as 21.5 nM. Take `CC[C@@H](C)N1C(=O)N(Cc2nnc(-c3ccc(F)c(O)c3F)s2)C2(CC2)C1=O` [Compound I-42, (R)-6-(sec-butyl)-4-((5-(2,4-difluoro-3-hydroxyphenyl)-1,3,4-thiadiazol-2-yl)methyl)-4,6-diazaspiro[2.4]heptane-5,7-dione]: the IC50 in assay [1] stood at 4.08 nM. The half-maximal effective concentration (EC50) in assay [2] (setting [3]) stood at 15.7 nM. Take `O=C1N(C(c2ccc(F)cc2F)C(F)(F)F)C(=O)C2(CC2)N1Cc1nnc(-c2ccc(F)c(O)c2Cl)s1` (stereo not shown) [Compound I-54, 4-[[5-(2-chloro-4-fluoro-3-hydroxy-phenyl)-1,3,4-thiadiazol-2-yl]methyl]-6-[1-(2,4-difluorophenyl)-2,2,2-trifluoro-ethyl]-4,6-diazaspiro[2.4]heptane-5,7-dione]: the half-maximal inhibitory concentration (IC50) in assay [1] was 1.53 nM. Moreover, the EC50 in assay [2] (setting [3]) was 10.7 nM. For `O=C1N([C@@H](c2ccccc2)C(F)(F)F)C(=O)C2(CC2)N1Cc1nnc(-c2ccc(F)c(O)c2Cl)s1` [Compound I-52, 4-[[5-(2-chloro-4-fluoro-3-hydroxy-phenyl)-1,3,4-thiadiazol-2-yl]methyl]-6-[(1S)-2,2,2-trifluoro-1-phenyl-ethyl]-4,6-diazaspiro[2.4]heptane-5,7-dione], in that order: 1.09 ± 0.23 nM and 6.41 ± 1.23 nM. For `O=C1N(Cc2ccc(Cl)cc2Cl)C(=O)C2(CC2)N1Cc1nnc(-c2ccc(F)c(O)c2Cl)s1` [Compound I-34, 4-((5-(2-chloro-4-fluoro-3-hydroxyphenyl)-1,3,4-thiadiazol-2-yl)methyl)-6-(2,4-dichlorobenzyl)-4,6-diazaspiro[2.4]heptane-5,7-dione], in that order: 4.6 nM and 119 nM. For `O=C1N(C2CCC2)C(=O)C2(CC2)N1Cc1nnc(-c2ccc(F)c(O)c2F)s1` [Compound I-30, 6-cyclobutyl-4-((5-(2,4-difluoro-3-hydroxyphenyl)-1,3,4-thiadiazol-2-yl)methyl)-4,6-diazaspiro[2.4]heptane-5,7-dione], in that order: 7.08 nM and 35.9 nM. As to `CCN1C(=O)N(Cc2nnc(-c3cc(C(F)(F)F)cc(O)c3F)s2)C2(CC2)C1=O` [Compound I-14, 6-ethyl-4-[[5-[2-fluoro-3-hydroxy-5-(trifluoromethyl)phenyl]-1,3,4-thiadiazol-2-yl]methyl]-4,6-diazaspiro[2.4]heptane-5,7-dione], in assay [1], the IC50 came out at 9.6 nM. The EC50 in assay [2] (setting [3]) was determined as 125 nM. For `O=C1N(Cc2ccccc2)C(=O)C2(CC2)N1Cc1nnc(-c2cc(C(F)(F)F)cc(O)c2F)s1` [Compound I-55, 6-benzyl-4-((5-(2-fluoro-3-hydroxy-5-(trifluoromethyl)phenyl)-1,3,4-thiadiazol-2-yl)methyl)-4,6-diazaspiro[2.4]heptane-5,7-dione], in that order: 2.14 nM and 29.2 nM. For `C[C@@H](c1ccccc1)N1C(=O)N(Cc2nnc(-c3ccc(F)c(O)c3F)s2)C2(CC2)C1=O` [Compound I-83, (S)-4-((5-(2,4-difluoro-3-hydroxyphenyl)-1,3,4-thiadiazol-2-yl)methyl)-6-(1-phenylethyl)-4,6-diazaspiro[2.4]heptane-5,7-dione], in that order: 2 ± 0.588 nM and 10.4 nM. Consider `O=C1N(CC23CC(C2)C3)C(=O)C2(CC2)N1Cc1nnc(-c2ccc(F)c(O)c2F)s1` [Compound I-6, 6-(bicyclo[1.1.1]pentan-1-ylmethyl)-4-((5-(2,4-difluoro-3-hydroxyphenyl)-1,3,4-thiadiazol-2-yl)methyl)-4,6-diazaspiro[2.4]heptane-5,7-dione], for which the IC50 in assay [1] amounted to 22.1 ± 2.18 nM. In assay [2] (setting [4]), the concentration giving a half-maximal response (EC50) is 165 nM.

For `CCN1C(=O)N(Cc2nnc(-c3ccc(F)c(O)c3F)s2)C2(CCC2)C1=O` [Compound I-1, 5-((5-(2,4-difluoro-3-hydroxyphenyl)-1,3,4-thiadiazol-2-yl)methyl)-7-ethyl-5,7-diazaspiro[3.4]octane-6,8-dione], the IC50 in assay [1] worked out at 56.7 nM.

As usually defined, the IC50 is the point on the concentration scale where inhibition reaches its midpoint. What is called EC50 is the concentration needed to bring the measured effect to its halfway point.
